{
  "source": "patent US20070004660A1",
  "about": "“Synergistic Modulation of Flt3 Kinase Using Alkylquinolines and Alkylquinazolines” (priority 2005, published 2007)",
  "key": {"Baf3-ITD cells": {"test_system": "Baf3-ITD cells", "assay": "Cell proliferation assay, single agents and FTI/FLT3 inhibitor combinations, Baf3-ITD", "format": "cell-based, murine", "settings": "with single sub-IC50 dose of FLT3 inhibitor Compound A, 50 nM", "procedure": "The cell lines that were tested included those that are dependent on FLT3ITD mutant activity for growth (MV4-11 and Baf3-FLT3ITD), FLT3wt activity for growth (Baf3FLT3) and those that grow independent of FLT3 activity (THP-1). […] Baf3-FLT3 and Baf3-FLT3ITD cell lines were obtained from Dr. Michael Henrich and the Oregon Health Sciences University. The Baf3 FLT3 cell lines were created by stable transfection of parental Baf3 cells (a murine B cell lymphoma line dependent on the cytokine IL-3 for growth) with either wild-type FLT3 or FLT3 containing the ITD insertion in the juxatamembrane domain of the receptor resulting in its constitutive activation. […]\nTo statistically evaluate the synergy of a FLT3 inhibitor and an FTI in FLT3 dependent cell lines, dosing combinations were evaluated by the method of Chou and Talalay. See Chou T C, Talalay P. (1984) “Quantitative analysis of dose-effect relationships: the combined effects of multiple drugs or enzyme inhibitors.” Adv Enzyme Regul. […] Using this method, multiple FTI and FLT3 combinations were evaluated. […]\n(§1) Cell proliferation assay for MV4-11, Baf3-ITD, Baf3-FLT3 and THP-1 cells. […] Total cell growth is quantified as the difference in luminescent counts (relative light units, RLU) of cell number at Day 0 compared to total cell number at Day 3 (72 hours of growth and/or compound treatment). […]"}, "MV-4-11 tumor xenografts": {"test_system": "MV-4-11 tumor xenografts", "excerpt": "Dosing was continued for sixteen consecutive days.\nValues represent the mean (±sem) of 10 mice per treatment group."}, "[1]": {"test_system": "patients with relapsed and refractory AML", "settings": "cited from earlier work"}, "MV4-11 AML cells": {"test_system": "MV4-11 AML cells", "assay": "Cell proliferation assay, single agents and FTI/FLT3 inhibitor combinations, MV4-11", "format": "cell-based, human", "procedure": "Dose responses for the individual compounds alone were determined for each cell line using a standard 72-hour cell proliferation assay (see FIGS. 6.1-6.8). The standard chemotherapeutic agent Cytarabine was used as a control cytotoxic agent in all experiments. […] The FLT3 inhibitors, Compounds A, B, C, D, E, F G and H individually have good potency (sub-micromolar) for the inhibition of FLT3 driven proliferation (compared to the first line cytotoxic agent Cytarabine and Tipifarnib) in cells that depend on FLT3 for growth. Each of these chemically distinct compounds alone has potential for the treatment of disorders related to FLT3, such as FLT3 positive AML. […] The FLT3 inhibitors tested had no effect on THP-1 proliferation. […] (See FIGS. 10.1-10.8 and Tables 1-3, hereafter.)\nTo statistically evaluate the synergy of a FLT3 inhibitor and an FTI in FLT3 dependent cell lines, dosing combinations were evaluated by the method of Chou and Talalay. See Chou T C, Talalay P. (1984) “Quantitative analysis of dose-effect relationships: the combined effects of multiple drugs or enzyme inhibitors.” Adv Enzyme Regul. 22:27-55. […] Using this method, multiple FTI and FLT3 combinations were evaluated. […]\nas §1, with “treatment). One hundred percent inhibition of growth is defined as an RLU equivalent to the Day 0 reading.” for “treatment).”\nCombination Index Analysis. To determine growth inhibition synergy of a FTI and FLT3 inhibitor combination based on the method of Chou and Talalay (Chou and Talalay. See Chou T C, Talalay P. (1984) “Quantitative analysis of dose-effect relationships: the combined effects of multiple drugs or enzyme inhibitors.” Adv Enzyme Regul. 22:27-55. ), fixed ratio combination dosing with isobolar statistical analysis was performed. […]"}, "[2]": {"settings": "multicenter Phase II trial, relapsed AML"}},
  "data": [
    {"smiles": "Cn1cncc1C(N)(c1ccc(Cl)cc1)c1ccc2c(c1)c(-c1cccc(Cl)c1)cc(=O)n2C", "note": "(single isomer, unassigned; (+)) [Tipifarnib, (+)-6-[amino(4-chlorophenyl)(1-methyl-1H-imidazol-5-yl)methyl]-4-(3-chlorophenyl)-1-methyl-2(1H)-quinolinone]", "values": [
      {"measurement": "increase in potency of Tipifarnib", "setting": "Baf3-ITD cells", "result": "more than 3 fold"},
      {"measurement": "effect on tumor growth", "setting": "MV-4-11 tumor xenografts; 50 mg/kg po single agent, 16 days", "result": "ineffective"},
      {"measurement": "overt toxicity", "setting": "MV-4-11 tumor xenografts; 16-day treatment, either agent alone or in combination", "result": "No overt toxicity"},
      {"measurement": ">50% reduction in bone marrow blasts", "setting": "[1]; [2]", "result": "31 of 50"},
      {"measurement": "complete responses (bone marrow blasts <5%)", "setting": "[1]; [2]", "result": "17 of 50"},
      {"measurement": "response rate", "setting": "[1]; patients with relapsed and refractory AML", "result": "~30", "unit": "%"},
      {"measurement": "potency for inhibition of proliferation, single agent", "setting": "MV4-11 AML cells; 72-hour assay, cells that depend on FLT3 for growth (Tipifarnib: depending on the cell type)", "result": "high nanomolar to high picomolar range"},
      {"measurement": "increase in potency of Tipifarnib", "setting": "MV4-11 AML cells; with single sub-IC50 dose of FLT3 inhibitor Compound A, 50 nM", "result": "more than 3 fold"}
    ]}
  ]
}
